Experimental data from ChEMBL document CHEMBL3352790, “Small molecule ghrelin receptor inverse agonists and antagonists” (J Med Chem, 2014).

Columns and labels:
Mus musculus [1] = assay: Reduction in food intake in C57BL/6J mouse at 30 mg/kg, ip after 2 hrs; assay type: functional; settings: route intraperitoneal
[2] = target: T1, Growth hormone secretagogue receptor type 1 (Homo sapiens, UniProt Q92847); assay: Antagonist activity against human ghrelin receptor by FLIPR assay
[3] = Unbound fraction rat brain; assay type: ADME, tissue-based
Mus musculus [4] = species on record: Mus musculus; assay: Reduction in fat content in mouse; assay type: functional; set-up: scale not given: the % may be the effect or the level left
[5] = target: T1, Growth hormone secretagogue receptor type 1; assay: Binding affinity to human ghrelin receptor by receptor binding assay
[6] = Oral bioavailability in rat; assay type: ADME, organism-based; settings: in vivo

T1 sequence (Q92847 whole entry): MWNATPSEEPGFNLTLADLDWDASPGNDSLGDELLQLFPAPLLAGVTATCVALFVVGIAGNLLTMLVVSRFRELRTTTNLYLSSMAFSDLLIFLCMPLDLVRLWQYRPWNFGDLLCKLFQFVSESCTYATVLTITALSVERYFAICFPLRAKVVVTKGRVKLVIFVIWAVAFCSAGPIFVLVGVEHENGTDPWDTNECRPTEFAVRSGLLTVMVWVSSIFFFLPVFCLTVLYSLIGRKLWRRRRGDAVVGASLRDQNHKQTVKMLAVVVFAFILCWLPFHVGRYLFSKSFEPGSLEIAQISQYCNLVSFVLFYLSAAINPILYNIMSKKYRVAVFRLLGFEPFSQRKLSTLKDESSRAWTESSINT

## CC(NC(=O)N(Cc1ccccc1Cl)C1CCN(C)CC1)c1cccc(Cl)c1Cl (configuration not stated)
Mus musculus [1]
  inhibition in vivo at 30 mg/kg: 70%

## CN1CCN([C@@H](C(=O)NNc2cc(C(F)(F)F)cc(C(F)(F)F)c2)c2ccccc2Cl)CC1
[2]
  IC50: 6.31 nM
[3]
  Fu: 0.2%

## CCN(CC)CCCS(=O)(=O)N[C@H](CCc1ccccc1)c1nc(-c2ccc(OC)cc2)n[nH]1
Mus musculus [4]
  Activity: 50%
[5]
  Ki: 15 nM
[6]
  bioavailability: 63%

## O=C(NNc1cc(C(F)(F)F)cc(C(F)(F)F)c1)[C@@H](c1cccnc1)N1CCN2CCC[C@@H]2C1
[2]
  IC50: 3.98 nM
